Reference: ChEMBL document CHEMBL1133878, “Selectivity enhancement induced by substitution of non-natural analogues of arginine and lysine in arginine-based thrombin inhibitors” (Bioorg Med Chem Lett, 2001)

Legend:
[1] = target: Thrombin & trypsin (Homo sapiens) (UniProt P00734+P07477+P07478+P35030); experiment: Selectivity ratio (trypsin/thrombin) was calculated; format: protein assay
[2] = target: T1, Serine protease 1 (Bos taurus, UniProt P00760); experiment: Binding affinity determined against trypsin by Dixon method
T1 sequence (P00760 whole entry): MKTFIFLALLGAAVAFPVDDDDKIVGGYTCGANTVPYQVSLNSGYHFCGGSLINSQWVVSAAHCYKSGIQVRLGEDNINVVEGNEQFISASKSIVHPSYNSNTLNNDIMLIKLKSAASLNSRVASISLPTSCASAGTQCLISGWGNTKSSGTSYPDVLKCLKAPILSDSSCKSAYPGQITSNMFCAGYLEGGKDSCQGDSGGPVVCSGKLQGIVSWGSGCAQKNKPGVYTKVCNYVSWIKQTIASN

[3] = target: Prothrombin (Homo sapiens, UniProt P00734); experiment: Binding affinity determined against thrombin by Dixon method

| SMILES | Selectivity ratio [1] | Ki [2] | Ki [3] |
| --- | --- | --- | --- |
| CN(C)c1cccc2c(S(=O)(=O)NC(CCCN3CCN=C3N)C(=O)N3CCCCC3)cccc12 (stereo unspecified) | 525 | 278 µM | 0.53 µM |
| CNC(C)CCCCC(NS(=O)(=O)c1cccc2c(N(C)C)cccc12)C(=O)N1CCCCC1 (stereo unspecified) | – | – | > 10 µM |
| CC/N=C(/N)NCCCC(NS(=O)(=O)c1cccc2c(N(C)C)cccc12)C(=O)N1CCCCC1 (stereo unspecified) | 178 | 337 µM | 1.89 µM |
| CN(C)c1cccc2c(S(=O)(=O)NC(CCCNC3=NCCCN3)C(=O)N3CCCCC3)cccc12 (stereo unspecified) | – | – | > 10 µM |
| C/N=C(/N)NCCCC(NS(=O)(=O)c1cccc2c(N(C)C)cccc12)C(=O)N1CCCCC1 (stereo unspecified) | 962 | 922 µM | 0.958 µM |
| CN(C)c1cccc2c(S(=O)(=O)NC(CCCN=C(N)N)C(=O)N3CCCCC3)cccc12 (stereo unspecified) | 28.2 | 2.34 µM | 0.083 µM |
| CN(C)c1cccc2c(S(=O)(=O)NC(CCCNC3=NCCN3)C(=O)N3CCCCC3)cccc12 (stereo unspecified) | 29.4 | 116 µM | – |
